In the supplement of paper PMC10307832:

Legend:
Test in all cases: relative viability (nuclei count vs DMSO), 5 days (fraction); higher = more cells survive
[1] = compound: CS(=O)(=O)c1ccc(C(=O)Nc2ccc(Cl)c(-c3ccccn3)c2)c(Cl)c1 [Vismodegib] + N=C(N)NC(=N)NCCc1ccccc1 [Phenformin] (partner 250 µM)
Procedure, shortened: (§1)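 Each reported value is a median over duplicate plates. It expresses relative viability: treated-well nuclei count divided by vehicle-well nuclei count. Lung cancer cell lines in 1536-well plates were dosed by pin tool a day after seeding, alone with one drug or with a fixed anchor-drug dose plus five library-drug doses (not always all listed) in √10 steps, and nuclei were counted after 5 days.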

[2] = compound: CS(=O)(=O)c1ccc(C(=O)Nc2ccc(Cl)c(-c3ccccn3)c2)c(Cl)c1 [Vismodegib] + Cc1nc(Nc2ncc(C(=O)Nc3c(C)cccc3Cl)s2)cc(N2CCN(CCO)CC2)n1 [Dasatinib] (partner 0.075 µM)
Procedure, shortened: as §1

[3] = compound: N#CC[C@H](C1CCCC1)n1cc(-c2ncnc3[nH]ccc23)cn1 [Ruxolitinib] + Nc1ncn([C@H]2C[C@H](O)[C@@H](CO)O2)c(=O)n1 [Decitabine] (partner 2 µM)
Procedure, shortened: as §1

[4] = compound: CS(=O)(=O)c1ccc(C(=O)Nc2ccc(Cl)c(-c3ccccn3)c2)c(Cl)c1 [Vismodegib] + NC(=O)Nc1cc(-c2cccc(F)c2)sc1C(=O)N[C@H]1CCCNC1 [AZD7762] (partner 0.2 µM)
Procedure, shortened: as §1

| Cell Line | relative viability ([1]; first compound 0.08 µM) | relative viability ([1]; first compound 0.253 µM) | relative viability ([1]; first compound 0.8 µM) | relative viability ([1]; first compound 2.53 µM) | relative viability ([1]; first compound 8 µM) | relative viability ([2]; first compound 0.08 µM) | relative viability ([2]; first compound 0.253 µM) | relative viability ([2]; first compound 0.8 µM) | relative viability ([2]; first compound 2.53 µM) | relative viability ([2]; first compound 8 µM) | relative viability ([3]; first compound 0.253 µM) | relative viability ([3]; first compound 0.8 µM) | relative viability ([3]; first compound 2.53 µM) | relative viability ([3]; first compound 8 µM) | relative viability ([4]; first compound 0.08 µM) | relative viability ([4]; first compound 0.253 µM) | relative viability ([4]; first compound 0.8 µM) | relative viability ([4]; first compound 2.53 µM) | relative viability ([4]; first compound 8 µM) | relative viability ([3]; first compound 0.08 µM) |
| --- | --- | --- | --- | --- | --- | --- | --- | --- | --- | --- | --- | --- | --- | --- | --- | --- | --- | --- | --- | --- |
| HCC-827 | 0.39 | 0.406 | 0.381 | 0.384 | 0.408 | 0.361 | 0.263 | 0.297 | 0.268 | 0.293 | 0.325 | 0.364 | 0.253 | 0.305 | 0.278 | 0.183 | 0.258 | 0.168 | 0.169 |  |
| HOP-62 | 0.645 | 0.637 | 0.665 | 0.698 | 0.569 | 0.663 | 0.694 | 0.609 | 0.683 | 0.683 | 0.258 | 0.227 | 0.208 | 0.19 | 0.591 | 0.41 | 0.798 | 0.691 | 0.423 | 0.197 |
| LC-2-ad | 0.626 | 0.583 | 0.561 | 0.618 | 0.494 | 0.677 | 0.568 | 0.467 | 0.482 | 0.557 | 0.936 | 0.784 | 0.694 | 0.604 | 0.823 | 0.822 | 0.84 | 0.864 | 0.751 | 0.776 |
| LCLC-97TM1 | 0.443 | 0.407 | 0.42 | 0.452 | 0.407 | 0.855 | 0.755 | 0.617 | 0.856 | 0.834 | 0.242 | 0.22 | 0.265 | 0.222 | 0.292 | 0.262 | 0.327 | 0.297 | 0.286 | 0.221 |
| LCLC-103H | 0.39 | 0.332 | 0.328 | 0.357 | 0.323 | 0.579 | 0.517 | 0.471 | 0.4 | 0.458 | 0.775 | 0.802 | 0.656 | 0.658 | 0.752 | 0.796 | 0.735 | 0.774 | 0.834 | 0.83 |
| LK-2 | 0.617 | 0.619 | 0.431 | 0.366 | 0.373 | 0.316 | 0.355 | 0.325 | 0.255 | 0.376 | 0.237 | 0.35 | 0.308 | 0.273 | 0.401 | 0.479 | 0.419 | 0.387 | 0.447 | 0.228 |
| LOU-NH91 | 0.66 | 0.68 | 0.67 | 0.75 | 0.681 | 0.55 | 0.554 | 0.526 | 0.547 | 0.511 | 0.813 | 0.829 | 0.782 | 0.798 | 0.802 | 0.752 | 0.727 | 0.771 | 0.789 | 0.684 |
| LU99A | 0.901 | 0.807 | 0.813 | 0.802 | 0.772 | 0.401 | 0.507 | 0.546 | 0.509 | 0.708 | 0.938 | 0.886 | 0.639 | 0.836 | 0.333 | 0.324 | 0.537 | 0.353 | 0.325 | 0.918 |
| NCI-H520 | 0.535 | 0.576 | 0.63 | 0.574 | 0.688 | 0.191 | 0.202 | 0.188 | 0.166 | 0.203 | 0.484 | 0.553 | 0.47 | 0.525 |  |  |  |  |  | 0.506 |
| NCI-H661 | 0.31 | 0.264 | 0.3 | 0.259 | 0.291 | 0.807 | 0.815 | 0.897 | 0.892 | 0.856 | 0.548 | 0.588 | 0.484 | 0.505 |  |  |  |  |  | 0.547 |
| NCI-H1563 | 0.622 | 0.623 | 0.676 | 0.721 | 0.626 | 0.455 | 0.443 | 0.477 | 0.495 | 0.454 |  |  |  |  |  |  |  |  |  |  |
| NCI-H1623 | 0.553 | 0.577 | 0.661 | 0.536 | 0.578 | 0.48 | 0.565 | 0.557 | 0.51 | 0.462 |  |  |  |  |  |  |  |  |  |  |
| NCI-H1648 |  |  |  |  |  |  |  |  |  |  | 0.558 | 0.588 | 0.592 | 0.861 | 0.811 | 0.717 | 0.833 | 0.693 | 0.696 | 0.472 |
| NCI-H1650 | 0.387 | 0.414 | 0.479 | 0.415 | 0.406 | 0.276 | 0.347 | 0.339 | 0.258 | 0.291 | 0.338 | 0.438 | 0.418 | 0.442 |  |  |  |  |  | 0.321 |
| NCI-H1703 |  |  |  |  |  |  |  |  |  |  |  |  |  |  | 0.139 |  | 0.134 | 0.104 | 0.152 |  |
| NCI-H2009 | 0.467 | 0.474 | 0.478 | 0.45 | 0.467 | 0.286 | 0.261 | 0.234 | 0.3 | 0.344 | 0.375 | 0.364 | 0.369 | 0.317 |  |  |  |  |  | 0.361 |
| NCI-H2023 | 0.367 | 0.364 | 0.43 | 0.384 | 0.401 | 0.564 | 0.534 | 0.628 | 0.455 | 0.558 | 0.264 | 0.267 | 0.218 | 0.271 |  |  |  |  |  | 0.214 |
| NCI-H2228 | 0.387 | 0.452 | 0.301 | 0.296 | 0.314 | 0.593 | 0.529 | 0.46 | 0.452 | 0.454 |  |  |  |  |  |  |  |  |  |  |
| SK-LU-1 | 0.569 | 0.489 | 0.538 | 0.477 | 0.705 | 0.211 | 0.196 | 0.204 | 0.211 | 0.211 | 0.693 | 0.755 | 0.522 | 0.622 |  |  |  |  |  | 0.547 |
| SK-MES-1 | 0.625 | 0.647 | 0.669 | 0.635 | 0.631 | 0.401 | 0.313 | 0.407 | 0.413 | 0.429 | 0.362 | 0.429 | 0.319 | 0.358 |  |  |  |  |  | 0.45 |
| SW 1573 | 0.493 | 0.353 | 0.4 | 0.323 | 0.385 | 0.406 | 0.44 | 0.389 | 0.447 | 0.632 | 0.512 | 0.667 | 0.377 | 0.518 |  |  |  |  |  | 0.547 |
